The subject of experiment [1] is hairless mice skin. Briefly: Barrier recovery (TEWL) after tape stripping with topical application of reagent. Conditions: for effect on barrier recovery (percent recovery of TEWL): topical, 100 μl aqueous solution containing 1 μM of reagent immediately after tape stripping, TEWL at 1, 3 and 6 hours, vs water control, FIG. 3. In kind it is in vivo, hairless mice (HR-1). As for the experimental part:
All experiments were performed on 7-10-week old male hairless mice (HR-1, Hoshino, Japan). All procedures for measuring of skin barrier function, disrupting the barrier and applying the sample were carried out under anesthesia. All experiments were approved by the Animal Research Committee of the Shiseido Research Center in accordance with the National Research Council Guide (National Research Council 1996). Human skin experiments were carried out on the inner forearm of healthy males who gave their informed consent. 4 alpha-phorbol 12,13-[…] (4 alpha-PDD) and Rutenium-Red were purchased from Sigma (Sigma, St.Louis, Mich. USA). Capsaicin, capsazepine, and 2-aminoethoxydiphenyl borate (2-APB) were purchased from Tocris (TOCRIS, Bristol, UK). Camphor was purchased Wako (Wako, Osaka, Japan). Capsaicin is an agonist of TRPV1 and capsazepine is an antagonist of TRPV1 (Caterina et al. 1997). Both 2-APB and camphor are activator of TRPV3 (Chung et al. 2003)(Moquich et al. 2005). 4 alpha-PDD is an activator of TRPV4 and Rutenium-Red is a blocker of TRPV4 (Watanabe et al. 2002).
(§1) Permeability barrier function was evaluated by measurement of transepidermal water loss (TEWL) with an electric water analyzer, as described previously (Denda et al. 1998). For barrier recovery experiments, both sides of flank skin were treated with repeated tape stripping procedure until the TEWL reached 7-10 mg per cm^2 per h, as described previously (Denda et al. 1998). Immediately after barrier disruption, 100 μl of an aqueous solution containing 1 μM of reagent or water alone (control) was applied to the treated area. […] The areas were covered with plastic membranes for 15 min and then the membranes were removed. Two points in one side of flank were measured and 4-8 mice were used to evaluate the effects of each treatment. We always disrupted the barrier within 7:00 AM to 8:00 AM and carried out the following measurements of the barrier repair to avoid the deviation of the repair rate due to the influence of circadian rhythm (Denda et al. 2000). TEWL was then measured over the same sites at 1, 3 and 6 hours after barrier disruption. The barrier recovery results are expressed as percent of recovery, because of variations from day to day in the extent of barrier disruption. In each animal, the percentage of recovery was calculated by the following formula: (TEWL immediately after barrier disruption−TEWL at indicated time point)/(TEWL immediately after barrier disruption−baseline TEWL)×100%. All experiments were performed on 7 to 10-week-old male hairless mice (HR-1, Hoshino, Japan). All procedures of the measurement of skin barrier function, disruption of the barrier and application of test sample were carried out under anesthesia.
The results are expressed as the mean ± SD. Statistical differences between two groups were determined by a two-tailed Student's t-test. In the case of more than 2 groups, differences were determined by ANOVA test (Fisher's protected least significant difference).

The test system of experiment [2] is hairless mice skin. The experiment in a line: Barrier recovery (TEWL) after tape stripping with applied heat plus topical reagent. The experiment is classed as in vivo, hairless mice (HR-1). Conditions: topical application, FIG. 4. The procedure:
as §1, with “We always disrupted the barrier within 7:00 AM to 8:00 AM and carried out the following measurements of the barrier repair to avoid the deviation of the repair rate due to the influence of circadian rhythm (Denda et al. 2000).” left out, “All experiments were performed on 7 to 10-week-old male hairless mice (HR-1, Hoshino, Japan). All procedures of the measurement of skin barrier function, disruption of the barrier and application of test sample were carried out under anesthesia.” left out
The results are expressed as the mean ± SD. Statistical differences between two groups were determined by a two-tailed Student's t-test. […]

We go through six compounds from US20070098665A1, “Effects of skin surface temperature on the epidermal permeability barrier homeostasis” (Shiseido Company, Ltd., priority 2005, published 2007).

As for `NCCOB(c1ccccc1)c1ccccc1` [2-aminoethoxydiphenyl borate], the “effect on barrier recovery (percent recovery of TEWL)” value (“effect … (percent recovery of TEWL)” for short) in the experiment with hairless mice skin [1] is “did not affect the barrier recovery rate”.

Turning to `CCCCCCCCCC(=O)O[C@@H]1[C@@H](C)[C@@]2(O)[C@@H](C=C(CO)C[C@@]3(O)C(=O)C(C)=C[C@@H]23)[C@@H]2C(C)(C)[C@]12OC(=O)CCCCCCCCC` [4 alpha-PDD, 4 alpha-phorbol 12,13-didecanoate], the “effect … (percent recovery of TEWL)” value with hairless mice skin [1] is recorded as “accelerated the barrier recovery”.

Turning to `CC12CCC(CC1=O)C2(C)C` (stereo not drawn) [camphor, Camphor], the “effect … (percent recovery of TEWL)” value with hairless mice skin [1] is “did not affect the barrier recovery rate”.

On to `COc1cc(CNC(=O)CCCC/C=C/C(C)C)ccc1O` [capsaicin, Capsaicin], for which, in the experiment with hairless mice skin [1], the “effect … (percent recovery of TEWL)” value is reported as “delayed the barrier recovery”.

As for `Oc1cc2c(cc1O)CN(C(=S)NCCc1ccc(Cl)cc1)CCC2` [capsazepine], the “effect on the delay of barrier recovery after capsaicin application” value with hairless mice skin [1] (topical application on hairless mice skin after tape stripping, as worded in the summary b8) is “the delay was blocked”. Besides, in the experiment with hairless mice skin [1], the “effect … (percent recovery of TEWL)” value is recorded as “accelerated the barrier repair”. Moreover, in the experiment on hairless mice skin [2] (heat 42° C. applied for one hour after tape stripping), the “effect on the delay of the barrier recovery by heat 42° C.” value is “blocked the delay of the barrier recovery by heat 42 °C”.

As to Rutenium-Red, the “effect … (percent recovery of TEWL)” value in the experiment on hairless mice skin [1] is “delayed the recovery”. The “effect on the acceleration of the barrier recovery by heat 36° C.” value in the experiment with hairless mice skin [2] (heat 36° C. applied for one hour after tape stripping) was “blocked the acceleration of the barrier recovery by heat 36 °C”.
